Literature values as cited in US20260335448A1 (priority 2022, published 2026).
Where two headings read alike, the source gives them in different places.

Assays:
dengue virus = details: in vitro
West Nile virus = details: in vitro
[1] = tested on: Venezuelan equine encephalitis virus
pseudorabies virus [2] = tested on: pseudorabies virus
pseudorabies virus [3] = details: in vivo
[4] = tested on: SARS-COV-2-infected Vero/hSLAM cells; details: in vitro, at high concentrations
breast cancer = details: in vitro
colon cancer = details: in vitro
gastric cancer = details: in vitro
glioblastoma = details: in vitro
leukemia = details: in vitro
melanoma = details: in vitro
ovarian cancer = details: in vitro

Which results are given for ivermectin?
anti-viral activity (dengue virus): activity in vitro; anti-viral activity (West Nile virus): activity in vitro; anti-viral activity [1]: activity in vitro; anti-viral activity (pseudorabies virus [2]): activity in vitro; anti-viral activity (pseudorabies virus [3]): activity in vitro and in vivo; anti-viral activity [4]: activity in vitro; anti-tumor activity (breast cancer): activity in vitro; anti-tumor activity (colon cancer): activity in vitro; anti-tumor activity (gastric cancer): activity in vitro; anti-tumor activity (glioblastoma): activity in vitro; anti-tumor activity (leukemia): activity in vitro; anti-tumor activity (melanoma): activity in vitro; anti-tumor activity (ovarian cancer): activity in vitro
